From patent publication US12084444B2, “Spiro-lactam NMDA modulators and methods of using same” (Tenacia Biotechnology (Hong Kong) Co., Limited, priority 2016, dated 2024) come the findings set out here.

One series concerns rats. Description: Positive emotional learning (PEL) test, 50-kHz ultrasonic vocalizations. To be noted: dose range 0.001-1 mg/kg, orally; tested one hour after administration. In kind it is in vivo, rat. How it is done:
Experiments were conducted as described in Burgdorf et al., “The effect of selective breeding for differential rates of 50-kHz ultrasonic vocalizations on emotional behavior in rats,” Devel. Psychobiol., 51:34-46 (2009). Rat 50-kHz ultrasonic vocalization (hedonic USVs) is a validated model for the study of positive affective state and is best elicited by rough-and-tumble play.
The PEL assay measures the acquisition of positive (hedonic) 50-kHz ultrasonic vocalizations (USVs) to a social stimulus, heterospecific rough and tumble play stimulation. Heterospecific rough-and-tumble play stimulation was administered by the experimenter's right hand. […] High frequency ultrasonic vocalizations (USVs) were recorded and analyzed by sonogram with Avasoft SASlab Pro (Germany) as previously described by Burgdorf et al., “Positive emotional learning is regulated in the medial prefrontal cortex by GluN2B-containing NMDA receptors,” Neuroscience, 192:515-523 (2011). Frequency modulated 50-kHz USVs that occurred during each of the no-stimulation periods were quantified to measure PEL. […] Positive emotional learning was measured during the conditioned stimulus (CS) trials preceding the tickle unconditioned stimulus (UCS) trials. […]

In series [1] the target is T1, NMDAR2A expressing HEK cell membranes (Homo sapiens, UniProt Q05586+Q12879).
T1 construct: expressed in transfected cells; host or cells: HEK cells (membrane extract)
Put plainly: NMDAR agonist assay, [3H]MK-801 binding, NMDAR2A. Type of series: biochemical. More on the design: key to NMDAR2A B: log EC50: 0=−; ≥1×10^−9 M (e.g., −8)=+; <1×10^−9 M (e.g., −10)=++. To be noted: 0.25 h, 50 μM glutamate; read-out: NMDAR2A A: % maximal [3H]MK-801 binding relative to 1 mM glycine. The procedure, abridged:
(§1)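 HEK membranes (300 μg protein) expressing each subtype were preincubated 15 min at 25 °C with 50 μM glutamate and compound (1×10^−15–1×10^−7 M) or 1 mM glycine. [3H]MK-801 (0.3 μCi) binding then ran 15 min under nonequilibrium conditions, followed by filtration. EC50 and % maximal binding against 1 mM glycine came from three-parameter fits of baseline-subtracted DPM (N=2).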

The target in series [2] is T2, NMDAR2A expressing HEK cell membranes (Homo sapiens, UniProt Q12879).
T2 construct: expressed in transfected cells; host or cells: HEK cells (membrane extract)
Description: NMDAR agonist assay, [3H]MK-801 binding, NMDAR2A. Type of series: biochemical. More on the design: key to NMDAR2A B: log EC50: 0=−; ≥1×10^−9 M (e.g., −8)=+; <1×10^−9 M (e.g., −10)=++. To be noted: 50 μM glutamate. The procedure, abridged:
as §1

Series [3] is described as follows: Oral pharmacokinetics (plasma, brain, CSF). In kind it is in vivo, Sprague Dawley rats. To be noted: rat, per os, 10 mg/kg. How it is done: In another experiment, Sprague Dawley rats were dosed per os using a normal saline formulation containing 10 mg/kg of the compounds identified in the table below. Plasma, brain, and CSF samples were analyzed at various time points over a 24 hour period. The table below summarizes the results of the oral pharmacokinetics.

The target in series [4] is T3, NMDAR2D expressing HEK cell membranes (Homo sapiens, UniProt O15399+Q05586).
T3 construct: expressed in transfected cells; host or cells: HEK cells (membrane extract)
Description: NMDAR agonist assay, [3H]MK-801 binding, NMDAR2D. Type of series: biochemical. To be noted: 50 μM glutamate; read-out: NMDAR2D B: log EC50 (converted). How it is done:
(§2) Assays were conducted as described by Moskal et al., “GLYX-13: a monoclonal antibody-derived peptide that acts as an N-methyl-D-aspartate receptor modulator,” Neuropharmacology, 49, 1077-87, 2005. These studies were designed to determine if the test compounds act to facilitate NMDAR activation in NMDAR2A, NMDAR2B, NMDAR2C or NMDAR2D expressing HEK cell membranes as measured by increases in [^3H]MK-801 binding.
(§3) In the assay, 300 μg of NMDAR expressing HEK cell membrane extract protein was preincubated for 15 minutes at 25° C. in the presence of saturating concentrations of glutamate (50 μM) and varying concentrations of test compound (1×10^−15 M-1×10^−7 M), or 1 mM glycine. Following the addition of 0.3 μCi of [^3H]MK-801 (22.5 Ci/mmol), reactions were again incubated for 15 minutes at 25° C. (nonequilibrium conditions). Bound and free [^3H]MK-801 were separated via rapid filtration using a Brandel apparatus.
(§4) In analyzing the data, the DPM (disintegrations per minute) of [^3H]MK-801 remaining on the filter were measured for each concentration of test compound or for 1 mM glycine. The DPM values for each concentration of a ligand (N=2) were averaged. The baseline value was determined from the best fit curve of the DPM values modeled using the GraphPad program and the log(agonist) vs. response(three parameters) algorithm was then subtracted from all points in the dataset. The % maximal [^3H]MK-801 binding was then calculated relative to that of 1 mM glycine: all baseline subtracted DPM values were divided by the average value for 1 mM glycine. The EC50 and % maximal activity were then obtained from the best fit curve of the % maximal [^3H]MK-801 binding data modelled using the GraphPad program and the log(agonist) vs. response(three parameters) algorithm.
(§5) The tables below summarize the results for the wild type NMDAR agonists NMDAR2A, NMDAR2B, NMDAR2C, and NMDAR2D, and whether the compound is not an agonist (−), is an agonist (+), or is a strong agonist (++), where column A is based on the % maximal [^3H]MK-801 binding relative to 1 mM glycine (−=0; <100%=+; and >100%=++); and column B is based on log EC50 values (0=−; ≥1×10^−9 M (e.g., −8)=+; and <1×10^−9 M (e.g., −10)=++).

Series [5] addresses T4, NMDAR2D expressing HEK cell membranes (Homo sapiens, UniProt O15399).
T4 construct: expressed in transfected cells; host or cells: HEK cells (membrane extract)
Description: NMDAR agonist assay, [3H]MK-801 binding, NMDAR2D. Type of series: biochemical. To be noted: 50 μM glutamate. How it is done: as §2, §3, §4, §5

Each structure is given as a SMILES string.

T3 sequence (O15399 28-1336, other chains not shown): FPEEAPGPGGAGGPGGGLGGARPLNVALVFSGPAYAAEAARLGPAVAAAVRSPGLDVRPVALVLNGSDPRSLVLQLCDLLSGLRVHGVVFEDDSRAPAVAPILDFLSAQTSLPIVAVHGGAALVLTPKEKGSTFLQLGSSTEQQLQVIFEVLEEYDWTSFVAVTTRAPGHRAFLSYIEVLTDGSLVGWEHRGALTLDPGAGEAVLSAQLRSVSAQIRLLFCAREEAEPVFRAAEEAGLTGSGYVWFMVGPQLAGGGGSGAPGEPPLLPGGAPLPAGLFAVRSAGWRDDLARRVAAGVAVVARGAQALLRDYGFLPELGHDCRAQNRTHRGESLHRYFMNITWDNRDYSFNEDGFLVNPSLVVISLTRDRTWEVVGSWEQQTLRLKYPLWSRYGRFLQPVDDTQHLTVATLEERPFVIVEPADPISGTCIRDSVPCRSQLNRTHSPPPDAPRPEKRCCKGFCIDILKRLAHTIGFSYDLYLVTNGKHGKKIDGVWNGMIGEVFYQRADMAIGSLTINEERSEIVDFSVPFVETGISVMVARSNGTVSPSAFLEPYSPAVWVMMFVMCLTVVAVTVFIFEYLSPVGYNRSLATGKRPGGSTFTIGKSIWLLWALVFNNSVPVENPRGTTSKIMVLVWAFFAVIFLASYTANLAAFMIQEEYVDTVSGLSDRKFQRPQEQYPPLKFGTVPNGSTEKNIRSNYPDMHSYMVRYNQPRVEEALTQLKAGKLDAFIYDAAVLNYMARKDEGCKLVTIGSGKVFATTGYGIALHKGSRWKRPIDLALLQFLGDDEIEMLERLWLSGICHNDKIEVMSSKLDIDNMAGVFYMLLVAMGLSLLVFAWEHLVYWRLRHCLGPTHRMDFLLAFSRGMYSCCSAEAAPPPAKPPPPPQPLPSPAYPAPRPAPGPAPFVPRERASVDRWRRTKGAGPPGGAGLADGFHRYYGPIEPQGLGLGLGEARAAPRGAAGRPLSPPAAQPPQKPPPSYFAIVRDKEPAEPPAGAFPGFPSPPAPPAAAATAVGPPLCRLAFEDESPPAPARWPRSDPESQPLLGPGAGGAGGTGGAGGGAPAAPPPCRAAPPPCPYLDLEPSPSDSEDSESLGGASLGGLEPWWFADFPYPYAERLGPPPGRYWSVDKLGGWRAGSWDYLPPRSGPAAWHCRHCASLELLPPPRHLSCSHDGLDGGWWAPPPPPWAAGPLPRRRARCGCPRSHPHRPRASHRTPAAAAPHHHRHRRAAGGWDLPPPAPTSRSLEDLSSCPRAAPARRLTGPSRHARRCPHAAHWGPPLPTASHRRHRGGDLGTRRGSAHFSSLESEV
T4 sequence (O15399 28-1336, other chains not shown): as above
T2 sequence (Q12879 23-1464, other chains not shown): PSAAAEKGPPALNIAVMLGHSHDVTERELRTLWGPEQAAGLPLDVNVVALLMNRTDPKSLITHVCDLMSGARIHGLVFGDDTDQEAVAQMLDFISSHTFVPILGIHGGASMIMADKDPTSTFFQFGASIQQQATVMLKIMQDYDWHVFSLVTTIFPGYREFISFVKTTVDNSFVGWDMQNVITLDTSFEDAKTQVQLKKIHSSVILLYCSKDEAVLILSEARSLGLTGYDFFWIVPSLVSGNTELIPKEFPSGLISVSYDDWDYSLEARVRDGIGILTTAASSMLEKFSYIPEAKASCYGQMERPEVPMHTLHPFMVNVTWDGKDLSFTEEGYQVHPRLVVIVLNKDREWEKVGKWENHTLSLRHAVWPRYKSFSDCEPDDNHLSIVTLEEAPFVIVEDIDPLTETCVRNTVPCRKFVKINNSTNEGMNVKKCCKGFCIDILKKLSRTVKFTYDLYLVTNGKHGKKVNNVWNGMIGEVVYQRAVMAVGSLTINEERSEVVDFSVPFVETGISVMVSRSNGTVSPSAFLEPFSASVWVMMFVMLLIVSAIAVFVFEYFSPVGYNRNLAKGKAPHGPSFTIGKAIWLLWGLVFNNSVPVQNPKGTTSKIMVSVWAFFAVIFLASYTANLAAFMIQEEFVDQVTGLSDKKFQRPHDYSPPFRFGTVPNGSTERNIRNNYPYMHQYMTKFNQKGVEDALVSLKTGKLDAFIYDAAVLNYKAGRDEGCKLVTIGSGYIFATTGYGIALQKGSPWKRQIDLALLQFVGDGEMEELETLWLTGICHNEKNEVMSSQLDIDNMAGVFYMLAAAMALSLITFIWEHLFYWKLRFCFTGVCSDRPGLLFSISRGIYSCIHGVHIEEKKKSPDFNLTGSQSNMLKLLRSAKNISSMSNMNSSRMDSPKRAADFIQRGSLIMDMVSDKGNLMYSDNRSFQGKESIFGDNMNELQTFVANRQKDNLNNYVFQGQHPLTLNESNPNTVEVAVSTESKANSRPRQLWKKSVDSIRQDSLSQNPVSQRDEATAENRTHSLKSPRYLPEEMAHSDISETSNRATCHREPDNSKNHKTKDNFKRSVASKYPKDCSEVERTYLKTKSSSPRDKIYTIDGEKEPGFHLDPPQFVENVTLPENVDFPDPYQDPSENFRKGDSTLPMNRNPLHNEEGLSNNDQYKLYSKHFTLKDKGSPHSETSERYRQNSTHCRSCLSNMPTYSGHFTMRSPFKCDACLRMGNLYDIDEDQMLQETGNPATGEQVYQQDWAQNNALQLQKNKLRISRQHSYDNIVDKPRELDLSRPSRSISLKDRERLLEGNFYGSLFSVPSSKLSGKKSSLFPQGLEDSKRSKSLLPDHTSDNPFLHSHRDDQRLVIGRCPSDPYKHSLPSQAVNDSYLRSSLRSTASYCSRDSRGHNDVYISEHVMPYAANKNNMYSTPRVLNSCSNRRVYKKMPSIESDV
T1 sequence (Q12879 23-1464, other chains not shown): as above

As usually defined, the AUC(0-t) is the area under the concentration-time curve up to a stated or last time point. The bioavailability is the share of a dose that reaches the circulation, judged against a reference dose that is usually intravenous. By Tmax is commonly meant the time from dosing to the highest level. The Cmax is the peak of the concentration-time curve. In general, EC50 refers to the concentration needed to bring the measured effect to its halfway point. With `COc1ccc(CN2C[C@@]3(CCNC(=O)C3)C2=O)cc1` [Compound AA-2, 2-(4-methoxybenzyl)-2,7-diazaspiro[3.5]nonane-1,6-dione], the “maximum effect, mean number of 50 kHz USVs per 15 seconds” value with rats is 10.1-20 50 kHz USVs per 15 seconds. Moreover, in series [1], the Emax was 0%. Further, the “NMDAR2A B: log EC50” value in series [2] is recorded as “−”. In series [3] (Sprague Dawley, plasma, po), this molecule gave an AUC(0-t) of 17300 ng·h/mL and a bioavailability of 100%. In addition, in series [3] (Sprague Dawley, plasma, po, normal saline), the Tmax came to 15 min. In series [3] (Sprague Dawley, po, plasma), the Cmax was determined as 11300 ng/mL. In addition, in series [3] (CSF), the “CSF Cmax” value worked out at 1476.3 ng/mL. Besides, the “Brain Cmax” value in series [3] (brain) was 1107.2 ng/mL. In addition, the 50% effective concentration (EC50) in series [4] is less than 1 nM. Moreover, in series [5], the “NMDAR2D A: % maximal [3H]MK-801 binding relative to 1 mM glycine” value is “+ (<100%=+)”.
